Data set [1] can be described thus: Tissue distribution 24 h after oral administration of 14C-PFA lipid prodrugs to mice. The data set is classed as in vivo. The settings on record: oral gavage 20 mg/kg in liposomes, 14C radioactivity (FIG. 2). As to the method: 1-O-Octadecyl-sn-glycero-3-PFA[^14C] and 1-O-octadecyl-2-O-methyl-sn-glycero-3-PFA[^14C] (30 microcuries/micromole) were dried with dioleoylphosphatidylcholine/cholesterol/drug in a molar ratio of 60/30/10 in a nitrogen stream, lyophilized overnight and isotonic sorbitol was added. After vortexing and warming, the vessel was sonicated at maximum output in a Heat Systems cup and horn sonicator for one hour. The resulting liposome preparation was filtered through a 0.2 micron filter and administered to mice by oral gavage in a dose of 20 mg/kg of the respective PFA lipid prodrugs. After 24 hours the animals were sacrificed and tissues removed, blotted dry, weighed and homogenized. Aliquots were counted and the amount of radioactivity determined. The results are expressed as nanomoles of lipid prodrug PFA[^14C] per gm tissue.

Data set [2] has as its system Rauscher leukemia virus complex (RLV). Briefly: Treatment of Rauscher leukemia virus-infected mice (spleen weight). Conditions: for effective doses (ED50): RLV-infected BALB/C mice, 21 days oral, prodrug by gavage once a day, AZT in drinking water, spleen weight day 23. The format is in vivo. From the text:
1-O-Octadecyl-sn-glycero-3-phospho-AZT was compared to free AZT in treating mice infected with Rauscher murine leukemia virus (RLV). RLV is a murine retrovirus, and RLV-infected mice are useful as a model system for evaluating therapeutic effectiveness of candidate anti-AIDS drugs against retrovirus induced disease in vivo. […] Effective antiviral agents inhibit the splenomegaly, and a reduction in organ weight correlates with the elimination of virus (Ruprecht, R., et al., Nature 323:467-469 (1986)). […] The closest practical approach to optimum administration is the intake of AZT in drinking water.
Female BALB/C mice were infected with 1×10^4 plaque-forming units (PFU) of Rauscher leukemia virus complex (RLV) on day 0. Control animals were injected with saline. Beginning on day 2, groups of the infected mice as indicated in FIG. 1 were treated with AZT at doses from about 11.0 mg/kg/day to 15.0 mg/kg/day for 21 days either by offering AZT in drinking water or by gavaging with 1-O-octadecyl-sn-glycero-3-P-AZT once a day. On day 23 post-inoculation, the mice in both treatment protocols were sacrificed, and the spleen weights of the animals were determined. The mean spleen weights, indicating relative level of virus infection, for each dose level in the two protocols, are represented in the bar graphs of FIG. 1.

Data set [3] deals with human cytomegalovirus (HCMV). The experiment in a line: Human cytomegalovirus (HCMV) antiviral susceptibility assay (HCMV DNA hybridization in MRC-5 cells). The data set is classed as cell-based. The settings on record: for IC50: HCMV-infected MRC-5 human lung fibroblasts, HCMV DNA after 5 days, mean ± SD (n); for antiviral activity compared in words: comparison with PFA / B-PFA. As to the method:
Subconfluent MRC-5 cells in 24-well culture dishes were pretreated for 24 hours with various concentrations of drug in MEM medium containing 2% FBS and antibiotics. The media was removed and virus added at a dilution that will result in a 3-4+ cytopathic effect (CPE) in the no-drug wells in five days. This was absorbed for 1 hour at 37° C., aspirated and replaced with the drug dilutions. After five days of incubation HCMV DNA was quantified in triplicate by nucleic acid hybridization using a CMV AntiviraL Susceptibility Test Kit from Diagnostic Hybrids, Inc. (Athens, Ohio). The media was removed and cells lysed according to the manufacturer's instructions.
After absorption of the lysate, the Hybriwix™ filters were hybridized overnight at 60° C. The Hybriwix™ were washed for 30 minutes at 73° C. and counted in a gamma counter. The results are expressed as HCMV DNA as a percentage of the untreated HCMV-infected control cells.

In a further data set the test system is HSV-1 virus. Briefly: HSV antiviral susceptibility assay (HSV DNA hybridization in MRC-5 cells). The format is cell-based, human herpes simplex virus 1. Conditions: comparison with PFA / B-PFA. As to the method:
Subconfluent MRC-5 cells in 24-well culture dishes were inoculated by removing the media and adding HSV-1 virus at a dilution that will result in a 3-4+CPE in the no-drug well in 20-24 hours. This was absorbed for 1 hour at 37° C., aspirated and replaced with various concentrations of drugs in MEM medium containing 2% FBS and antibiotics. After approximately 24 hours of incubation, HSV DNA was quantified in triplicate by nucleic acid hybridization using a HSV Antiviral Susceptibility Test Kit from Diagnostic Hybrids, Inc. (Athens, Ohio). The media was removed and cells lysed according to the manufacturer's instructions. After absorption of the lysate, the Hybriwix™ filters were hybridized overnight at 60° C. The Hybriwix™ were washed for 30 minutes at 73° C. and counted in a gamma counter. The results are expressed as a percentage of the untreated HSV-infected control cells.

The test system of data set [4] is human immunodeficiency virus-1. The experiment in a line: Plaque reduction assay for HIV-1 replication in HT4-6C cells. The data set is classed as cell-based. Conditions: comparison with PFA / B-PFA / BB-PFA. How it is done:
HT4-6C cells and plaque reduction assay, CD4-expressing HeLa cells, HT4-6C cells (Chesebro, B. and K. Wehrly (1988) J. Virol. 62:3779-3788), were obtained from Bruce Chesebro, Hamilton, Mont. The effect of antiviral compounds on HIV replication was measured by a plaque reduction assay. Briefly, monolayers of HT4-6C cells were infected with 100 to 300 PFU of virus per well in 24-well microdilution plates. Various concentrations of drug were added to the culture medium, Dulbecco's Modified Eagle Medium containing 5% fetal bovine serum and antibiotics, as noted above. After 3 days at 37° C., the monolayers were fixed with 10% formaldehyde solution in phosphate-buffered saline and stained with 0.25% crystal violet to visualize virus plaques (Larder, B. et al. (1989) Science 243:1731-1734). Antiviral activity was assessed as the percentage of control Plaques measured in drug-treated samples.

As usually defined, the IC50 is the midpoint of a concentration-inhibition curve. Low values mean greater potency in that assay, high ones weaker potency in that assay.

“Also recorded” adds a separate entry of the source.

`CCCCCCCCCCCCCCCCCCOC[C@@H](O)COP(=O)(O)C(=O)O` [B-PFA, 1-O-octadecyl-sn-glycero-3-phosphonoformate]: in data set [1], the “tissue levels of drug” value was “lower levels of drug in most tissues studied including liver, spleen, jejunum and ileum”.
For the compound `CCCCCCCCCCCCCCCCCCOC[C@@H](O)COP(=O)(O)OC[C@H]1O[C@@H](n2cc(C)c(=O)[nH]c2=O)C[C@@H]1N=[N+]=[N-]` [1-O-octadecyl-sn-glycero-3-P-AZT, 1-O-Octadecyl-sn-glycero-3-phospho-3′-azido-3′-deoxythymidine], the “effective doses (ED50)” value in data set [2] is given as “comparable”. For the same compound, the “inhibition of splenomegaly, effectiveness” value in data set [2] (RLV-infected mice, once a day gavage versus free AZT in drinking water (FIG. 1)) is on record as “as effective, in comparable doses, as virtually continuous free AZT administration”.
As to `Cc1cn([C@H]2C[C@H](N=[N+]=[N-])[C@@H](CO)O2)c(=O)[nH]c1=O` [AZT, 3′-azido-3′-deoxythymidine, reference compound], the “effective doses (ED50)” value in data set [2] was “comparable”.
For the compound `CCCCCCCCCCCCCCCCCCOC[C@H](COP(=O)(O)C(=O)O)OCc1ccccc1` [BB-PFA, 1-O-octadecyl-2-O-benzyl-sn-glycero-3-phosphonoformate], 0.54 ± 0.65 µM corresponded to half-maximal inhibition in data set [3] (IC50). Also, the “antiviral activity compared in words” value in data set [3] (HCMV) is reported as “equivalent in antiviral activity to B-PFA”.
For `CCCCCCCCCCCCCCCCCCOCC(COP(=O)(O)C(=O)O)(OC)OC` [ODDMOP-PFA, 1-O-octadecyl-2,2-dimethoxypropane-3-phosphonoformate], half-maximal inhibition in data set [3] (IC50) required 0.22 ± 0.14 µM. In addition, the “antiviral activity compared in words” value in data set [3] (HCMV) is reported as “substantially more active”. Also, the “FOLD INCREASE IN ACTIVITY” value in data set [3] (versus PFA, HCMV) came out at 209 fold.
In the case of `CCCCCCCCCCCCCCCCCCOC[C@H](COP(=O)(O)C(=O)O)OC` [MB-PFA, 1-O-octadecyl-2-O-methyl-sn-glycero-3-phosphonoformate], the “antiviral activity compared in words” value in the data set with HSV-1 virus was “more active than B-PFA”; in data set [3] (HCMV), “equivalent in antiviral activity to B-PFA”; in data set [4], “significantly more active than B-PFA and BB-PFA; also recorded: more active than B-PFA to a statistically significant degree”. Also, in data set [1], the “drug levels in the small intestine” value is “lower in the small intestine”. Besides, in data set [1], the “tissue levels of drug” value was “higher tissue levels of drug were observed in liver, spleen, lung, brain, kidney and lymph node”.

The record behind these values is US7517858B1, “Prodrugs of pharmaceuticals with improved bioavailability” (The Regents of the University of California, priority 1995, dated 2009).
